In patent US8569336B2, “Compounds for the treatment of inflammatory disorders” (priority 2008, dated 2013):

Test system: TNF-α production from human whole blood
Test: Inhibition of TNF-α production from human whole blood (hWBA), LPS stimulated, ELISA
Assay type: cell-based
Details: Homo sapiens, 3.5 h, human whole blood diluted 1:1, LPS stimulated, 3.5 h, TNF-α by ELISA; read-out: hWBA (IC50)

SMILES	IC50 [nM]
COc1ccc2c(c1)C(=O)N(C[C@@]1(c3cc4c(o3)CNCC4)NC(=O)NC1=O)C2 [Compound 2266]	860
COc1ccc2c(c1)C(=O)N(C[C@@]1(c3cc4c[n+]([O-])ccc4o3)NC(=O)NC1=O)C2 [Compound 2259]	509
COc1ccc2c(c1)C(=O)N(C[C@@]1(c3ccc(-c4ccc5c(c4)CN(CC4(C)NC(=O)NC4=O)C5=O)cc3)NC(=O)NC1=O)C2 (some centres unmarked) [Compound 2174]	617
COc1ccc2c(c1)C(=O)N(C[C@@]1(c3cc4cc(-c5ccncc5)ccc4o3)NC(=O)NC1=O)C2 [Compound 2194]	1170
COc1ccc2c(c1)C(=O)N(C[C@@]1(c3cc4cc(-c5ccc(N)nc5)ccc4o3)NC(=O)NC1=O)C2 [Compound 2202]	713
COc1ccc2c(c1)C(=O)N(C[C@@]1(c3cc4c(o3)CCN(CC(N)=O)C4)NC(=O)NC1=O)C2 [Compound 2268]	252
COc1ccc2c(c1)C(=O)N(C[C@@]1(c3cc4cc(CO)ccc4o3)NC(=O)NC1=O)C2 [Compound 2178]	518
COc1ccc2c(c1)C(=O)N(C[C@@]1(c3cc4nc(-c5cc[nH]n5)ccc4o3)NC(=O)NC1=O)C2 [Compound 2103]	375
COc1ccc2c(c1)C(=O)N(C[C@@]1(c3cc4cc(C(=O)N5CCC(N(C)C)CC5)c(F)cc4o3)NC(=O)NC1=O)C2 [Compound 1277]	471
COc1ccc2c(c1)C(=O)N(C[C@@]1(c3cc4cc(C5(C)CNC(=O)N5)cc(C)c4o3)NC(=O)NC1=O)C2 (some centres unmarked) [Compound 2212]	2860
COc1ccc2c(c1)C(=O)N(C[C@@]1(c3cc4cc(-c5cc(O)n[nH]5)cnc4o3)NC(=O)NC1=O)C2 [Compound 2275]	491

Results, then the compound that gave them:

IC50 [nM]	SMILES
542	COc1ccc2c(c1)C(=O)N(C[C@@]1(c3cc4cc(CC(N)=O)ccc4o3)NC(=O)NC1=O)C2 [Compound 2209]
4030	COc1ccc2c(c1)C(=O)N(C[C@@]1(c3cc4ccc(OC)cc4o3)NC(=O)NC1=O)C2 [Compound 2187]
667	COc1ccc2c(c1)C(=O)N(C[C@@]1(c3cc4cc(C(=O)O)c(F)cc4o3)NC(=O)NC1=O)C2 [Compound 1272]
534	COc1ccc2c(c1)C(=O)N(C[C@@]1(c3cc4nc(-c5cc6ccccc6[nH]5)ccc4o3)NC(=O)NC1=O)C2 [Compound 2149]
252	COc1ccc2c(c1)C(=O)N(C[C@@]1(c3cc4c(O)nccc4o3)NC(=O)NC1=O)C2 [Compound 2256]

Same assay, conditions: Homo sapiens, LPS-stimulated human whole blood, TNF-α by ELISA; read-out: hWBA (IC50)

SMILES	IC50 [nM]
COc1ccc2c(c1F)C(=O)N(C[C@@]1(c3cc4cc([C@]5(C)C(=O)NC(=O)N5C)c(F)cc4o3)NC(=O)NC1=O)C2 [Compound 1317]	234
O=C1NC(=O)[C@](CN2Cc3ccc(O)c(F)c3C2=O)(c2cc3ncccc3o2)N1 [Compound 1721]	> 10000
COc1ccc2c(c1)C(=O)N(C[C@@]1(c3cc4ncc(C(=O)NC5CC5)cc4o3)NC(=O)NC1=O)C2 [Compound 1931]	321
COc1ccc2c(c1)C(=O)N(C[C@@]1(c3cc4c(o3)CCN(C(N)=O)C4)NC(=O)NC1=O)C2 [Compound 318]	646
COc1ccc2c(c1F)C(=O)N(C[C@@]1(c3cc4cc(F)c(C)nc4o3)NC(=O)NC1=O)C2 [Compound 1313]	686
O=C1NC(=O)[C@](CN2Cc3ccc(O)cc3C2=O)(c2cc3ncccc3o2)N1 [Compound 1735]	3830
COc1ccc2c(c1)C(=O)N(CC1([C@H]3C[C@@H](c4ccccc4)C3)NC(=O)NC1=O)C2 (some centres unmarked) [Compound 1914]	100000
CCN1CC=C(c2nc3cc([C@]4(CN5Cc6ccc(OC)c(F)c6C5=O)NC(=O)NC4=O)oc3cc2F)CC1 [Compound 1321]	184

More lines, now with the values ahead:

IC50 [nM]	SMILES
153	COc1ccc2c(c1F)C(=O)N(C[C@@]1(c3cc4nc(N5CCCN(C)CC5)ccc4o3)NC(=O)NC1=O)C2 [Compound 1713]
175	COc1ccc2c(c1F)C(=O)N(C[C@@]1(c3cc4nc(Nc5cn[nH]c5)ccc4o3)NC(=O)NC1=O)C2 [Compound 1730]
943	COc1ccc2c(c1F)C(=O)N(C[C@@]1(c3cc4cc(C)nc(C)c4o3)NC(=O)NC1=O)C2 [Compound 203]
244	COc1ccc2c(c1F)C(=O)N(C[C@@]1(c3ccc(-c4ccc(N)nc4)o3)NC(=O)NC1=O)C2 [Compound 310]

Target: T1, purified catalytic domain of recombinant human TACE (rhTACEc) (Homo sapiens, UniProt P78536, N452Q/S266A)
T1 construct: 6xHis (C); made in house; host or cells: baculovirus/Hi5 insect cells
T1 sequence (P78536 215-477 S266A/N452Q): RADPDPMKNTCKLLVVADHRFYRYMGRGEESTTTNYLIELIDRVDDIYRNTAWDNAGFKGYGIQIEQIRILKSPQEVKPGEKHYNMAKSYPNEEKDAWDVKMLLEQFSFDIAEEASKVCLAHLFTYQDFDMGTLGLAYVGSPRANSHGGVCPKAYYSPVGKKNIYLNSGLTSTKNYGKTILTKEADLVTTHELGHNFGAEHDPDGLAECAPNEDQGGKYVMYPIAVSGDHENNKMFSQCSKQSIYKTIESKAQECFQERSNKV
Test: TACE kinetic assay: cleavage of internally quenched peptide substrate TNF-FRET 2 (Ki)
Assay type: biochemical
Details: Ki, TNF-FRET 2 substrate

SMILES	Ki [nM]
O=C1NC(=O)[C@](CN2Cc3ccc(O)c(F)c3C2=O)(c2cc3ncccc3o2)N1 [Compound 1721]	1.64
O=C1NC(=O)[C@](CN2Cc3ccc(O)cc3C2=O)(c2cc3ncccc3o2)N1 [Compound 1735]	1.52
COc1ccc2c(c1)C(=O)N(C[C@@]1(c3cc4c(o3)CCN(CC(N)=O)C4)NC(=O)NC1=O)C2 [Compound 2268]	0.702

Same assay, conditions: TNF-FRET 2 substrate, read-out: Ki

SMILES	Ki [nM]
COc1ccc2c(c1)C(=O)N(C[C@@]1(c3cc4c(o3)CNCC4)NC(=O)NC1=O)C2 [Compound 2266]	7.83
COc1ccc2c(c1F)C(=O)N(C[C@@]1(c3cc4cc([C@]5(C)C(=O)NC(=O)N5C)c(F)cc4o3)NC(=O)NC1=O)C2 [Compound 1317]	0.47
COc1ccc2c(c1)C(=O)N(C[C@@]1(c3cc4ncc(C(=O)NC5CC5)cc4o3)NC(=O)NC1=O)C2 [Compound 1931]	0.56
COc1ccc2c(c1)C(=O)N(C[C@@]1(c3cc4c(o3)CCN(C(N)=O)C4)NC(=O)NC1=O)C2 [Compound 318]	5.62
COc1ccc2c(c1F)C(=O)N(C[C@@]1(c3cc4cc(F)c(C)nc4o3)NC(=O)NC1=O)C2 [Compound 1313]	0.83
COc1ccc2c(c1)C(=O)N(CC1([C@H]3C[C@@H](c4ccccc4)C3)NC(=O)NC1=O)C2 (some centres unmarked) [Compound 1914]	26.1
CCN1CC=C(c2nc3cc([C@]4(CN5Cc6ccc(OC)c(F)c6C5=O)NC(=O)NC4=O)oc3cc2F)CC1 [Compound 1321]	0.64
COc1ccc2c(c1)C(=O)N(C[C@@]1(c3cc4c[n+]([O-])ccc4o3)NC(=O)NC1=O)C2 [Compound 2259]	1.08
COc1ccc2c(c1)C(=O)N(C[C@@]1(c3ccc(-c4ccc5c(c4)CN(CC4(C)NC(=O)NC4=O)C5=O)cc3)NC(=O)NC1=O)C2 (some centres unmarked) [Compound 2174]	1.88
COc1ccc2c(c1)C(=O)N(C[C@@]1(c3cc4cc(-c5ccncc5)ccc4o3)NC(=O)NC1=O)C2 [Compound 2194]	0.741
COc1ccc2c(c1)C(=O)N(C[C@@]1(c3cc4cc(-c5ccc(N)nc5)ccc4o3)NC(=O)NC1=O)C2 [Compound 2202]	0.488
COc1ccc2c(c1)C(=O)N(C[C@@]1(c3cc4cc(CO)ccc4o3)NC(=O)NC1=O)C2 [Compound 2178]	0.546
COc1ccc2c(c1)C(=O)N(C[C@@]1(c3cc4nc(-c5cc[nH]n5)ccc4o3)NC(=O)NC1=O)C2 [Compound 2103]	0.342
COc1ccc2c(c1)C(=O)N(C[C@@]1(c3cc4cc(C(=O)N5CCC(N(C)C)CC5)c(F)cc4o3)NC(=O)NC1=O)C2 [Compound 1277]	0.62
COc1ccc2c(c1)C(=O)N(C[C@@]1(c3cc4cc(C5(C)CNC(=O)N5)cc(C)c4o3)NC(=O)NC1=O)C2 (some centres unmarked) [Compound 2212]	0.095
COc1ccc2c(c1)C(=O)N(C[C@@]1(c3cc4cc(-c5cc(O)n[nH]5)cnc4o3)NC(=O)NC1=O)C2 [Compound 2275]	1.08

Results, then the compound that gave them:

Ki [nM]	SMILES
2.51	COc1ccc2c(c1)C(=O)N(C[C@@]1(c3cc4cc(CC(N)=O)ccc4o3)NC(=O)NC1=O)C2 [Compound 2209]
0.989	COc1ccc2c(c1)C(=O)N(C[C@@]1(c3cc4ccc(OC)cc4o3)NC(=O)NC1=O)C2 [Compound 2187]
0.76	COc1ccc2c(c1F)C(=O)N(C[C@@]1(c3cc4nc(N5CCCN(C)CC5)ccc4o3)NC(=O)NC1=O)C2 [Compound 1713]
0.6	COc1ccc2c(c1F)C(=O)N(C[C@@]1(c3cc4nc(Nc5cn[nH]c5)ccc4o3)NC(=O)NC1=O)C2 [Compound 1730]
0.51	COc1ccc2c(c1)C(=O)N(C[C@@]1(c3cc4cc(C(=O)O)c(F)cc4o3)NC(=O)NC1=O)C2 [Compound 1272]
0.286	COc1ccc2c(c1)C(=O)N(C[C@@]1(c3cc4nc(-c5cc6ccccc6[nH]5)ccc4o3)NC(=O)NC1=O)C2 [Compound 2149]
0.231	COc1ccc2c(c1)C(=O)N(C[C@@]1(c3cc4c(O)nccc4o3)NC(=O)NC1=O)C2 [Compound 2256]
0.0608	COc1ccc2c(c1F)C(=O)N(C[C@@]1(c3cc4cc(C)nc(C)c4o3)NC(=O)NC1=O)C2 [Compound 203]
0.0208	COc1ccc2c(c1F)C(=O)N(C[C@@]1(c3ccc(-c4ccc(N)nc4)o3)NC(=O)NC1=O)C2 [Compound 310]
